What was measured:
Type in all cases: in vivo
rice (Oryza sativa) = assay: Test B flooded paddy test, visual plant response rating 0-100; conditions: 250 g ai/ha, Flood, applied to paddy water, evaluated after 13 days
Method in brief: (§1)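 Visual evaluation after 13 days. Water-applied treatment, 3 cm flood depth held constant, plants at 2-leaf stage at treatment.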

[1] = test system: barnyardgrass (Echinochloa crusgalli); assay: as above; conditions: 250 g ai/ha, Flood, applied to paddy water, evaluated after 13 days
Method in brief: as §1

[2] = test system: sedge, umbrella (small-flower umbrella sedge, Cyperus difformis); assay: as above; conditions: 250 g ai/ha, Flood, applied to paddy water, evaluated after 13 days
Method in brief: as §1

[3] = test system: ducksalad (Heteranthera limosa); assay: as above; conditions: 250 g ai/ha, Flood, applied to paddy water, evaluated after 13 days
Method in brief: as §1

[4] = test system: barnyardgrass (Echinochloa crus-galli); assay: Test A postemergence application, visual injury rating 0-100
Method in brief: (§2)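 Rating: visual, day 10, untreated plants as reference, 0 no effect to 100 full control. Plants were in loam-sand and were treated either preemergence via directed soil spray or postemergence at the one- to two-leaf stage.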

corn (Zea mays) [5] = assay: as above
Method in brief: as §2

kochia (Bassia scoparia) [6] = assay: as above
Method in brief: as §2

[7] = test system: oat, wild (wild oat, Avena fatua); assay: as above
Method in brief: as §2

[8] = test system: ragweed (common ragweed, Ambrosia artemisiifolia); assay: as above
Method in brief: as §2

[9] = test system: palmer (palmer amaranth, palmer pigweed, Amaranthus palmeri); assay: as above
Method in brief: as §2

[10] = test system: ryegrass, Italian (italian ryegrass, Lolium multiflorum); assay: as above
Method in brief: as §2

[11] = test system: wheat (Triticum aestivum); assay: as above
Method in brief: as §2

[12] = test system: green foxtail (Setaria viridis); assay: as above
Method in brief: as §2

soybean (Glycine max) [13] = assay: as above
Method in brief: as §2

[14] = test system: blackgrass (Alopecurus myosuroides); assay: as above
Method in brief: as §2

[15] = test system: horseweed (Erigeron canadensis); assay: as above
Method in brief: as §2

[16] = test system: barnyardgrass (Echinochloa crus-galli); assay: Test A preemergence soil spray, visual injury rating 0-100; conditions: 10 days
Method in brief: as §2

corn (Zea mays) [17] = assay: as above; conditions: 10 days
Method in brief: as §2

kochia (Bassia scoparia) [18] = assay: as above; conditions: 10 days
Method in brief: as §2

[19] = test system: oat, wild (wild oat, Avena fatua); assay: as above; conditions: 10 days
Method in brief: as §2

[20] = test system: ragweed (common ragweed, Ambrosia artemisiifolia); assay: as above; conditions: 10 days
Method in brief: as §2

[21] = test system: palmer (palmer amaranth, palmer pigweed, Amaranthus palmeri); assay: as above; conditions: 10 days
Method in brief: as §2

[22] = test system: ryegrass, Italian (italian ryegrass, Lolium multiflorum); assay: as above; conditions: 10 days
Method in brief: as §2

[23] = test system: wheat (Triticum aestivum); assay: as above; conditions: 10 days
Method in brief: as §2

[24] = test system: green foxtail (Setaria viridis); assay: as above; conditions: 10 days
Method in brief: as §2

soybean (Glycine max) [25] = assay: as above; conditions: 10 days
Method in brief: as §2

[26] = test system: blackgrass (Alopecurus myosuroides); assay: as above; conditions: 10 days
Method in brief: as §2

[27] = 62 g ai/ha, postemergence, 10 days, 0 = no effect, 100 = complete control
[28] = Postemergence, 16 g ai/ha, greenhouse 10 days, 0 no effect, 100 complete control
[29] = 62 g ai/ha, 0 = no effect, 100 = complete control

COC(=O)COC(=O)C1=CCC(NC(=O)C2(C)CN(c3cc(F)cc(F)c3)C(=O)O2)C1 (centres unmarked) [Compound 108]
80: Kochia plant response rating (0 to 100 scale) (kochia (Bassia scoparia) [6]; [28]) | Oat, Wild plant response rating (0-100) [7, 27] | Ryegrass, Italian plant response rating (0-100) [10, 27]
30: Oat, Wild plant response rating (0 to 100 scale) [7, 28] | Horseweed plant response rating (0 to 100 scale) [15, 28] | Corn plant response rating (corn (Zea mays) [17]; 16 g ai/ha, 0 to 100 scale) | Pigweed, Palmer plant response rating ([21]; 16 g ai/ha, 0 to 100 scale) | Foxtail, Green plant response rating ([24]; 16 g ai/ha, 0 to 100 scale) | Blackgrass plant response rating (0-100) [26, 29]
70: Plant response rating, Sedge, Umbrella (0 to 100 scale, 0 is no effect and 100 is complete control) [2] | Plant response rating, Ducksalad (0 to 100 scale, 0 is no effect and 100 is complete control) [3] | Pigweed, Palmer plant response rating (0 to 100 scale) [9, 28] | Soybean plant response rating (0-100) (soybean (Glycine max) [13]; [27]) | Blackgrass plant response rating (0 to 100 scale) [14, 28] | Horseweed plant response rating (0-100) [15, 27] | Oat, Wild plant response rating (0-100) [19, 29] | Ryegrass, Italian plant response rating ([22]; 16 g ai/ha, 0 to 100 scale)
50: Plant response rating, Barnyardgrass (0 to 100 scale, 0 is no effect and 100 is complete control) [1] | Wheat plant response rating (0 to 100 scale) [11, 28] | Kochia plant response rating (0-100) (kochia (Bassia scoparia) [18]; [29])
100: Barnyardgrass plant response rating (0-100) [4, 27] | Corn plant response rating (0-100) (corn (Zea mays) [5]; [27]) | Corn plant response rating (0 to 100 scale) (corn (Zea mays) [5]; [28]) | Barnyardgrass plant response rating (0-100) [16, 29] | Foxtail, Green plant response rating (0-100) [24, 29]
90: Barnyardgrass plant response rating (0 to 100 scale) [4, 28] | Kochia plant response rating (0-100) (kochia (Bassia scoparia) [6]; [27]) | Pigweed, Palmer plant response rating (0-100) [9, 27] | Wheat plant response rating (0-100) [11, 27] | Foxtail, Green plant response rating (0-100) [12, 27] | Blackgrass plant response rating (0-100) [14, 27] | Pigweed, Palmer plant response rating (0-100) [21, 29] | Ryegrass, Italian plant response rating (0-100) [22, 29] | Wheat plant response rating ([23]; 16 g ai/ha, 0 to 100 scale) | Wheat plant response rating (0-100) [23, 29]
0: Kochia plant response rating (kochia (Bassia scoparia) [18]; 16 g ai/ha, 0 to 100 scale) | Oat, Wild plant response rating ([19]; 16 g ai/ha, 0 to 100 scale) | Ragweed plant response rating ([20]; 16 g ai/ha, 0 to 100 scale) | Ragweed plant response rating (0-100) [20, 29] | Soybean plant response rating (soybean (Glycine max) [25]; 16 g ai/ha, 0 to 100 scale) | Blackgrass plant response rating ([26]; 16 g ai/ha, 0 to 100 scale)
85: Plant response rating, Rice (0 to 100 scale, 0 is no effect and 100 is complete control) (rice (Oryza sativa))
60: Ryegrass, Italian plant response rating (0 to 100 scale) [10, 28] | Foxtail, Green plant response rating (0 to 100 scale) [12, 28] | Soybean plant response rating (0 to 100 scale) (soybean (Glycine max) [13]; [28]) | Corn plant response rating (0-100) (corn (Zea mays) [17]; [29])
40: Ragweed plant response rating (0-100) [8, 27]
10: Soybean plant response rating (0-100) (soybean (Glycine max) [25]; [29])
20: Ragweed plant response rating (0 to 100 scale) [8, 28] | Barnyardgrass plant response rating ([16]; 16 g ai/ha, 0 to 100 scale)
